# Measured values from patent US20220401407A1, “REGULATION OF THE SLEEP/WAKE CYCLE USING C[…]” (Demetrix, Inc., priority 2021, published 2022).
# Entries after “also recorded” stand apart in the source; their conditions may differ.
# Columns and labels:
# Type in all cases: cell-based
# [1] = molecular target: T1, HCRTR1 (Homo sapiens, UniProt O43613); assay: PathHunter β-Arrestin GPCR agonist assay, HCRTR1; parameters: concentration or dose not given beside the values; settings: agonist mode; Orexin A as control
# T1 sequence (O43613 1-425): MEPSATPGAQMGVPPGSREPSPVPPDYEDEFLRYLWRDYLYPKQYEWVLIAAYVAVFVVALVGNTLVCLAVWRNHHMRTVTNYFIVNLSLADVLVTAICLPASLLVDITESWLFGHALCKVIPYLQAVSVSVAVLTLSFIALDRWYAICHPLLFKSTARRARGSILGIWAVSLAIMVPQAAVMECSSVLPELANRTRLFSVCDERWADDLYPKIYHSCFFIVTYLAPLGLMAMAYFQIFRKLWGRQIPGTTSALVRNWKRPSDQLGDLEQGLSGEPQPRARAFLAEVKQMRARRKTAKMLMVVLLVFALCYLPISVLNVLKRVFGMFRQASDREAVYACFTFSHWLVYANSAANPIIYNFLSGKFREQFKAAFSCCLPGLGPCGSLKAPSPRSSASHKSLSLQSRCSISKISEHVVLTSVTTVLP
# Description: (§1) To evaluate the role specific cannabinoid compounds may play on the sleep/wake cycle, a GPCR reactivity assay was performed to determine the reactivity of 19 cannabinoid compounds to the orexin receivers HCRTR1 and HCRTR2. The evaluated cannabinoid compounds were: CBN, THCV, CBDVA, CBG, CBL, CBC, CBDV, CBDA, CBD, CBGA, (+)-CBD, CBG-C4, CBD-C1, CBD-C2, CBGV, CBGA-C4, CBGVA, CBCA, and CBLA. Orexin A was used as the control for HCRTR1 and HCRTR2.
# (§2) To perform the GPCR reactivity assay, a commercial GPCR assay, PathHunter® β-Arrestin from Eurofins DiscoverX Products (Fremont, Calif.), was used. […] At activation of the GPCR receptor and recruitment of β-arrestin, complementation of the peptide fragments occurs and restores β-galactosidase activity. The amount of β-galactosidase activity is then measurable using chemiluminescent reagents.
# (§3) A total of four assays were run. Agonist assays were run for each of HCRTR1 and HCRTR2 and antagonist assays were run for HCRTR1 and HCRTR2. In each of the two agonist assays, PathHunter® cell lines were removed from a freezer stock and seeded at a volume of 20 μL into white walled, 384-well microplates and incubated at 37° C. Each cell was incubated with a sample to induce a response and then diluted to generate a 5× sample in assay buffer. 5 μL of the 5× sample was then added to cells and incubated at 37° C. for 90 or 180 minutes. The final assay concentration was 1%. The assay signal was generated through addition of 12.5 μL or 15 μL (50% V/V) of a detection reagent cocktail followed by a one hour incubation time at room temperature. Microplates were read following signal generation with a PerkinElmer Envision™ (PerkinElmer Inc., Waltham, Mass.) for chemiluminescent signal detection. Reactivity was analyzed using the CBIS data analysis suite (ChemInnovation, CA) where RLU refers to the raw measured values. The percent activity was then calculated using the formula: % Activity=100%*(mean RLU of test sample−mean RLU of control)/(mean max control ligand−mean RLU of vehicle control).
# (§4) For agonist activity, the percent activity is depicted while for antagonist activity, the percent inhibition is depicted.
# [2] = molecular target: T1, HCRTR1; assay: PathHunter β-Arrestin GPCR antagonist assay, HCRTR1; settings: for HCRTR1 (Antagonist) percent inhibition: antagonist mode, agonist challenge at EC80
# Description: as §1, §2
# (§5) In each of the two antagonist assays, PathHunter® cell lines were removed from a freezer stock and seeded at a volume of 20 μL into white walled, 384-well microplates and incubated at 37° C. Each cell was pre-incubated with an antagonist followed by an agonist challenge at the EC80 concentration. Cells were then diluted to generate a 5× sample in assay buffer. 5 μL of the 5× sample was then added to cells and incubated at 37° C. for 30 minutes. Finally, 5 μL of 6×EC80 agonist in assay buffer were added to the cells and incubated at 37° C. for 90 minutes or 180 minutes. The assay signal was generated through addition of 12.5 μL or 15 μL (50% V/V) of a detection reagent cocktail followed by a one hour incubation time at room temperature. Microplates were read following signal generation with a PerkinElmer Envision™ (PerkinElmer Inc., Waltham, Mass.) for chemiluminescent signal detection. Reactivity was analyzed using the CBIS data analysis suite (ChemInnovation, CA) where RLU refers to the raw measured values. The percent inhibition was calculated using the formula: % Inhibition=100%*(1−mean RLU of test sample−mean RLU of control)/(mean RLU of EC80 control−mean RLU of vehicle control).
# as §4
# [3] = molecular target: T2, HCRTR2 (Homo sapiens, UniProt O43614); assay: PathHunter β-Arrestin GPCR antagonist assay, HCRTR2; settings: for HCRTR2 (Antagonist) percent inhibition: antagonist mode, agonist challenge at EC80
# T2 sequence (O43614 1-444): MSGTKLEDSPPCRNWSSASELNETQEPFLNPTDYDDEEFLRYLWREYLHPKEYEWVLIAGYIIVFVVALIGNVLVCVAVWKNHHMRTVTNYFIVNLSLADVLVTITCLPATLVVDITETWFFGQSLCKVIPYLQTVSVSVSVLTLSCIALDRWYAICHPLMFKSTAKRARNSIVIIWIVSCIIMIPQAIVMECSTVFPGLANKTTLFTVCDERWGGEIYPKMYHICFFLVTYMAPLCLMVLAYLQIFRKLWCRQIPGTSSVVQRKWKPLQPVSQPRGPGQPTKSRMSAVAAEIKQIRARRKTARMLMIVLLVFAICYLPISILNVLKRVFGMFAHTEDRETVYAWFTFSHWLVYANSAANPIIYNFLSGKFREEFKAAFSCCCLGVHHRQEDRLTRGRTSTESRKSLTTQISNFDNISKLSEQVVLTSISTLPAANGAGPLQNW
# Description: as §1, §2, §5, §4
# [4] = molecular target: dopamine receptor DRD5 (Homo sapiens, UniProt P21918); assay: PathHunter β-Arrestin GPCR agonist assay, DRD5; parameters: DRD5 (Agonist) percent activity: concentration or dose not given beside the values; settings: for DRD5 (Agonist) percent activity: agonist mode, dopamine as control
# Sequence of dopamine receptor DRD5 (P21918 whole entry): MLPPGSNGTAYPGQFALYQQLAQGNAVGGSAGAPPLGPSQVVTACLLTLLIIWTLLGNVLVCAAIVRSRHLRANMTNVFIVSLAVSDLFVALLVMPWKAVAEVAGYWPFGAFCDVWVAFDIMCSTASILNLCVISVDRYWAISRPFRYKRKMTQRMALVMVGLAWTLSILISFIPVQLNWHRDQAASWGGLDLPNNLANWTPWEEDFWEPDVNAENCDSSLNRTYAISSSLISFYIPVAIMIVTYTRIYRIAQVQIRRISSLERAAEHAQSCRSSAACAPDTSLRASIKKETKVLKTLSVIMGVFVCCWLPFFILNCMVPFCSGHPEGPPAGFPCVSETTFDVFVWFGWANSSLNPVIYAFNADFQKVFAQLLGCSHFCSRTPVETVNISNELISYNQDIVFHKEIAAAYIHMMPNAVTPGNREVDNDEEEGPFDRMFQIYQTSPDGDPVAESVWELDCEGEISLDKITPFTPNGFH
# Source text: as §2, §3
# Table 2 depicts the results of evaluating the cannabinoid compounds to act as an agonist for the dopamine receptor DRD5. The same experimental procedure as used for HCRTR1 and HCRTR2 agonist testing (Table 1) was followed with the substitution of dopamine as the control for the DRD5 receptor.
# [5] = molecular target: T2, HCRTR2; assay: PathHunter β-Arrestin GPCR agonist assay, HCRTR2; parameters: concentration or dose not given beside the values; settings: agonist mode; Orexin A as control
# Description: as §1, §2, §3, §4
Structure (SMILES),HCRTR1 (Agonist) percent activity [1] [%],antagonist effect on HCRTR1 (in words) [2],HCRTR1 (Antagonist) percent inhibition [2] [%],antagonist effect on HCRTR2 (in words) [3],HCRTR2 (Antagonist) percent inhibition [3] [%],DRD5 (Agonist) percent activity [4] [%],HCRTR2 (Agonist) percent activity [5] [%],DRD5 agonist effect (in words) [4]
"C=C(C)[C@@H]1CCC(C)=C[C@H]1c1c(O)cc(CCC)c(C(=O)O)c1O [CBDVA, cannabidivarinic acid]",0,do not demonstrate meaningful activity,7,do not demonstrate meaningful activity,10,4,0,
"C=C(C)[C@@H]1CCC(C)=C[C@H]1c1c(O)cc(C)cc1O [CBD-C1, cannabidiorcol]",3,do not demonstrate meaningful activity,12,do not demonstrate meaningful activity,9,0,1,
"CCCCCc1cc(O)c(C/C=C(\C)CCC=C(C)C)c(O)c1 [CBG, cannabigerol]",3,antagonist effect; also recorded: acted as an antagonist,98,antagonist effect; also recorded: acted as an antagonist,68,9,4,
"CCCCCc1cc(O)c2c(c1)OC(C)(C)c1ccc(C)cc1-2 [CBN, cannabinol]",1,antagonist effect; also recorded: acted as an antagonist,95,antagonist effect; also recorded: acted as an antagonist,94,3,7,
"CCCCc1cc(O)c(CC=C(C)CCC=C(C)C)c(O)c1 [CBG-C4, cannabigerol butyl]",4,antagonist effect; also recorded: acted as an antagonist,84,antagonist effect; also recorded: acted as an antagonist,45,6,6,
"CCCCCc1cc(O)c2c(c1)OC(C)(CCC=C(C)C)C=C2 (stereo not shown) [CBC, cannabichromene]",0,antagonist effect; also recorded: acted as an antagonist,98,antagonist effect; also recorded: acted as an antagonist,96,22,3,
"C=C(C)[C@@H]1CCC(C)=C[C@H]1c1c(O)cc(CCCCC)c(C(=O)O)c1O [CBDA, cannabidiolic acid]",1,do not demonstrate meaningful activity,2,do not demonstrate meaningful activity,10,5,0,
"CCCCCc1cc(O)c2c(c1)OC1(C)CCC3C1C2C3(C)C (stereo not shown) [CBL, cannabicyclol]",2,antagonist effect; also recorded: acted as an antagonist,96,antagonist effect; also recorded: acted as an antagonist,93,37,5,DRD5 agonists; also recorded: stronger agonist effects
"CCCCCc1cc2c(c(O)c1C(=O)O)C1C3C(CCC3(C)O2)C1(C)C (stereo not shown) [CBLA, cannabicyclolic acid]",2,do not demonstrate meaningful activity,7,do not demonstrate meaningful activity,15,0,0,
"C=C(C)[C@@H]1CCC(C)=C[C@H]1c1c(O)cc(CCC)cc1O [CBDV, cannabidivarin]",0,demonstrate activity against only HCRTR1; also recorded: acted as antagonists,61,demonstrate activity against only HCRTR1; also recorded: did not act as antagonists,18,7,0,
"CCCCc1cc(O)c(C/C=C(\C)CCC=C(C)C)c(O)c1C(=O)O [CBGA-C4, cannabigerolic acid butyl]",3,do not demonstrate meaningful activity,2,do not demonstrate meaningful activity,10,0,1,
"CCCc1cc(O)c(C/C=C(\C)CCC=C(C)C)c(O)c1 [CBGV, cannabigerivarin]",4,demonstrate activity against only HCRTR1; also recorded: acted as antagonists,44,demonstrate activity against only HCRTR1; also recorded: did not act as antagonists,12,6,2,
